Like-named read-outs stand apart in the source and are kept apart here.
Experiments:
[1] = system: pERK in NCI-H1435 cells (NF-1 mutant); test: pERK inhibition in NF-1 mutant NCI-H1435 cells (Example F); type: cell-based; conditions: NCI-H1435, 1 h, read-out: IC50, pERK inhibition
Protocol: The formaldehyde was discarded from the plates and 150 μL of ice-cold methanol was added to permeabilize the cells for 10 minutes at −20° C. The methanol was discarded from each of the plates and any liquid remaining in the plate by tapping the plate against paper towels. […] The plates were incubated overnight at 4° C. on a shaker.
On Assay day 2, the primary antibody solution was removed. […] The secondary antibody solution as removed and each plate was washed with PBST 3× times. Any liquid remaining was discarded and the plate was imaged using the Licor Odyssey machine according to the manufacturer's instruction, using a set focus length at 3 mm and both 800 nm and 700 nm filters. The GAPDH normalized scan values for each well were divided by the average of vehicle wells to get the % of pERK inhibition. The IC50 values were then calculated with the Graph pad Prism software.

pERK in MKN1 cells = test: cells; type: cell-based; conditions: Homo sapiens, MKN-1, pERK inhibition, In-Cell Western, MKN1 or H358 cells (Table 24 does not say which), 0.5-1 hour incubation
[2] = biological target: recombinant human SOS1 polypeptide (amino acids 560-1049) (Homo sapiens (Human), UniProt Q07889); test: biochemical; type: binding
recombinant human SOS1 polypeptide (amino acids 560-1049), sequence (Q07889 560-1049): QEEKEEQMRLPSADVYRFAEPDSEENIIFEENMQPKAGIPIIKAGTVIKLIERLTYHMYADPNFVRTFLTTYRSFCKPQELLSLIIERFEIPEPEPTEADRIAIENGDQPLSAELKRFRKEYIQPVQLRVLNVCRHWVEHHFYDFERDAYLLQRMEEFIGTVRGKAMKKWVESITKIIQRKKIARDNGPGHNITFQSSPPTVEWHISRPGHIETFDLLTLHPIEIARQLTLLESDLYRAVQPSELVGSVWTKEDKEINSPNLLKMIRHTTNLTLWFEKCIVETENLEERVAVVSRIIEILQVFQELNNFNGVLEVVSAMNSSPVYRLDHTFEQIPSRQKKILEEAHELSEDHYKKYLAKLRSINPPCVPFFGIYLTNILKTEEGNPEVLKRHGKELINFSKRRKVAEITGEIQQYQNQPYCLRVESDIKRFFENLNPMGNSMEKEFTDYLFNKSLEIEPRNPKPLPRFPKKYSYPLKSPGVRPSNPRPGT

[3] = HTRF displacement, Cy5 labelled tracer, Morrison equation for competitive binding, read-out: Ki, Inhibition of Labeled Tracer Binding to SOS1
[4] = read-out: Ki, Inhibition of Labeled Tracer Binding to SOS1

CNCc1ccccc1-c1ccc([C@@H](C)Nc2nnc(C)c3ccc(N4CCOCC4)cc23)s1 [Example 6-3, (R)-4-methyl-N-(1-(5-(2-((methylamino)methyl)phenyl)thiophen-2-yl)ethyl)-7-morpholinophthalazin-1-amine]
IC50 [1]: 25 nM
IC50 (pERK in MKN1 cells; read-out: IC50): 12 nM
Ki [2, 3]: 0.02 nM

Cc1nnc(N[C@H](C)c2cc(N)cc(C(F)(F)F)c2)c2cc(N3CCOCC3)ccc12 [Example 6-5, (R)-N-(1-(3-amino-5-(trifluoromethyl)phenyl)ethyl)-4-methyl-7-morpholinophthalazin-1-amine]
IC50 [1]: 9 nM
IC50 (pERK in MKN1 cells; read-out: IC50): 10 nM
Ki [2, 3]: 0.12 nM

CNCc1c(F)cccc1-c1ccc([C@@H](C)Nc2nnc(C)c3ccc(N4CCOCC4)cc23)s1 [Example 6-6, (R)-N-(1-(5-(3-fluoro-2-((methylamino)methyl)phenyl)thiophen-2-yl)ethyl)-4-methyl-7-morpholinophthalazin-1-amine]
IC50 [1]: 29 nM
IC50 (pERK in MKN1 cells; read-out: IC50): 40 nM
Ki [2, 3]: 0.11 nM

Cc1c([C@@H](C)Nc2nnc(C)c3cnc(N4CCNCC4)cc23)cccc1C(F)(F)F [Example 6-9, (R)-4-methyl-N-(1-(2-methyl-3-(trifluoromethyl)phenyl)ethyl)-7-(piperazin-1-yl)pyrido[3,4-d]pyridazin-1-amine]
IC50 [1]: 52 nM

Cc1c([C@@H](C)Nc2nnc(C)c3cnc(N4CCOCC4)cc23)cccc1C(F)(F)F [Example 6-12, (R)-4-methyl-N-(1-(2-methyl-3-(trifluoromethyl)phenyl)ethyl)-7-morpholinopyrido[3,4-d]pyridazin-1-amine]
IC50 [1]: 63 nM

Cc1c([C@@H](C)Nc2nnc(C)c3cc(F)c(N4CCNCC4)cc23)cccc1C(F)(F)F [Example 18-1, (R)-6-fluoro-4-methyl-N-(1-(2-methyl-3-(trifluoromethyl)phenyl)ethyl)-7-(piperazin-1-yl)phthalazin-1-amine]
IC50 (pERK in MKN1 cells): 128 nM
Ki [2, 4]: 0.98 nM

Cc1c([C@@H](C)Nc2nnc(C)c3cc(F)c(N4CCOCC4)cc23)cccc1C(F)(F)F [Example 18-2, (R)-6-fluoro-4-methyl-N-(1-(2-methyl-3-(trifluoromethyl)phenyl)ethyl)-7-morpholinophthalazin-1-amine]
IC50 (pERK in MKN1 cells): 380 nM
Ki [2, 4]: 5.27 nM

Cc1c(C#N)cccc1[C@@H](C)Nc1nnc(C)c2cc(F)c(N3CCNCC3)cc12 [Example 18-4, (R)-3-(1-((6-fluoro-4-methyl-7-(piperazin-1-yl)phthalazin-1-yl)amino)ethyl)-2-methylbenzonitrile]
IC50 (pERK in MKN1 cells; read-out: IC50): 41 nM
Ki [2, 3]: 1.64 nM

Cc1c(C#N)cccc1[C@@H](C)Nc1nnc(C)c2cc(C(F)(F)F)c(N3CC(C)(N(C)C)C3)cc12 [Example 19-1, (R)-3-(1-((7-(3-(dimethylamino)-3-methylazetidin-1-yl)-4-methyl-6-(trifluoromethyl)phthalazin-1-yl)amino)ethyl)-2-methylbenzonitrile]
IC50 (pERK in MKN1 cells; read-out: IC50): 156 nM
Ki [2, 3]: 6.16 nM

Cc1c(C#N)cccc1[C@@H](C)Nc1nnc(C)c2cc(C(F)(F)F)c(N3CC(C)(O)C3)cc12 [Example 19-3, (R)-3-(1-((7-(3-hydroxy-3-methylazetidin-1-yl)-4-methyl-6-(trifluoromethyl)phthalazin-1-yl)amino)ethyl)-2-methylbenzonitrile]
IC50 (pERK in MKN1 cells; read-out: IC50): 114 nM
Ki [2, 3]: 19.3 nM

Cc1nnc(N[C@H](C)c2cccc(C(F)(F)C(C)(C)O)c2F)c2cc(N3CCN4CCOC[C@@H]4C3)ncc12 [Example 20-2, 1,1-difluoro-1-(2-fluoro-3-((R)-1-((7-((S)-hexahydropyrazino[2,1-c][1,4]oxazin-8(1H)-yl)-4-methylpyrido[3,4-d]pyridazin-1-yl)amino)ethyl)phenyl)-2-methylpropan-2-ol]
IC50 (pERK in MKN1 cells; read-out: IC50): 8 nM
Ki [2, 3]: 0.75 nM

Cc1nnc(N[C@H](C)c2cccc(C(F)(F)C(C)(C)O)c2F)c2cc(N3CC4CC(C3)O4)ncc12 [Example 20-3, 1-(3-((1R)-1-((7-(6-oxa-3-azabicyclo[3.1.1]heptan-3-yl)-4-methylpyrido[3,4-d]pyridazin-1-yl)amino)ethyl)-2-fluorophenyl)-1,1-difluoro-2-methylpropan-2-ol]
IC50 (pERK in MKN1 cells; read-out: IC50): 16 nM
Ki [2, 3]: 0.92 nM

Cc1nnc(N[C@H](C)c2cc(O)cc(C(F)(F)F)c2)c2cc(N3CCOCC3)ncc12 [Example 21-1, (R)-3-(1-((4-methyl-7-morpholinopyrido[3,4-d]pyridazin-1-yl)amino)ethyl)-5-(trifluoromethyl)phenol]
IC50 (pERK in MKN1 cells; read-out: IC50): 77 nM
Ki [2, 3]: 2.93 nM

Cc1nnc(N[C@H](C)c2cc(O)cc(C(F)(F)F)c2)c2cc(N3CCOCC3)ccc12 [Example 21-2, (R)-3-(1-((4-methyl-7-morpholinophthalazin-1-yl)amino)ethyl)-5-(trifluoromethyl)phenol]
IC50 (pERK in MKN1 cells): 137 nM
Ki [2]: 1.67 nM

Cc1cc(C#N)cc([C@@H](C)Nc2nnc(C)c3cnc(N4CCOCC4)cc23)c1 [Example 21-3, (R)-3-methyl-5-(1-((4-methyl-7-morpholinopyrido[3,4-d]pyridazin-1-yl)amino)ethyl)benzonitrile]
IC50 (pERK in MKN1 cells): 221 nM
Ki [2, 4]: 14.4 nM

Cc1cc(C#N)cc([C@@H](C)Nc2nnc(C)c3ccc(N4CCOCC4)cc23)c1 [Example 21-4, (R)-3-methyl-5-(1-((4-methyl-7-morpholinophthalazin-1-yl)amino)ethyl)benzonitrile]
IC50 (pERK in MKN1 cells): 118 nM
Ki [2, 4]: 13.7 nM

Cc1c([C@@H](C)Nc2nnc(C)c3ccc(N4CC[C@@H](N(C)C)C(F)(F)C4)cc23)cccc1C(F)(F)F [Example 21-5, 7-((R)-4-(dimethylamino)-3,3-difluoropiperidin-1-yl)-4-methyl-N—((R)-1-(2-methyl-3-(trifluoromethyl)phenyl)ethyl)phthalazin-1-amine]
IC50 (pERK in MKN1 cells; read-out: IC50): 1110 nM
Ki [2, 3]: 1.34 nM

Cc1c([C@@H](C)Nc2nnc(C)c3ccc(N4CC[C@H](N(C)C)C(F)(F)C4)cc23)cccc1C(F)(F)F [Example 21-6, 7-((S)-4-(dimethylamino)-3,3-difluoropiperidin-1-yl)-4-methyl-N—((R)-1-(2-methyl-3-(trifluoromethyl)phenyl)ethyl)phthalazin-1-amine]
IC50 (pERK in MKN1 cells; read-out: IC50): 176 nM
Ki [2, 3]: 0.93 nM

Cc1nnc(N[C@H](C)c2cccc(C(F)(F)CO)c2)c2cc(N3CCOCC3)ncc12 [Example 21-7, (R)-2,2-difluoro-2-(3-(1-((4-methyl-7-morpholinopyrido[3,4-d]pyridazin-1-yl)amino)ethyl)phenyl)ethan-1-ol]
IC50 (pERK in MKN1 cells): 26 nM
Ki [2, 4]: 0.71 nM

Cc1c([C@@H](C)Nc2nnc(C)c3ccc(N4CCOCC4)cc23)cc(F)cc1C(F)(F)F [Example 21-8, (R)—N-(1-(5-fluoro-2-methyl-3-(trifluoromethyl)phenyl)ethyl)-4-methyl-7-morpholinophthalazin-1-amine]
IC50 (pERK in MKN1 cells; read-out: IC50): 90 nM
Ki [2, 3]: 3.17 nM

Cc1c(C#N)cccc1[C@@H](C)Nc1nnc(C)c2c(F)cc(N3CCN4COCC[C@@H]4C3)cc12 [Example 21-9, 3-((R)-1-((5-fluoro-7-((R)-hexahydro-2H,6H-pyrazino[1,2-c][1,3]oxazin-2-yl)-4-methylphthalazin-1-yl)amino)ethyl)-2-methylbenzonitrile]
IC50 (pERK in MKN1 cells; read-out: IC50): 54 nM
Ki [2, 3]: 2.1 nM

Cc1c(C#N)cccc1[C@@H](C)Nc1nnc(C)c2c(F)cc(N3CC(C)(O)C3)cc12 [Example 21-10, (R)-3-(1-((5-fluoro-7-(3-hydroxy-3-methylazetidin-1-yl)-4-methylphthalazin-1-yl)amino)ethyl)-2-methylbenzonitrile]
IC50 (pERK in MKN1 cells; read-out: IC50): 58 nM
Ki [2, 3]: 5.73 nM
